Laboratory results reported in PubChem BioAssay (NCI).
Several values for one entry are separate records, joined by “and”; a condition that tells them apart may be missing. Equal entries are not always repeated.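 Briefly, cells in 96-well plates were exposed to five compound concentrations for 48 h, and endpoints were estimated by linear interpolation. At the GI50, growth is halved. TGI marks complete inhibition of growth.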

System: SF-295 CNS
Experiment: inhibition of tumour cell growth, NCI panel, 48 h

Row | Compound | GI50 | TGI [µM]
1 | COc1ccc(-n2cc(-c3cc(OC)c(OC)c(OC)c3)[nH]c2=O)cc1Cl | 48.9 µM | > 100
2 | C=C(C)C1CCC2(C(=O)O)CCC3(C)C(CCC4C5(C)CCC(OC(=O)NCc6ccccc6)C(C)(C)C5CCC43C)C12 (stereo not drawn) | 3.15 µM | > 100
3 | Cc1ccc(-c2cc(=O)c3cc(C)c(C)c(C(=O)O)c3o2)cc1C | – | > 100
4 | O=C(/C=C/c1c(O)ccc2ccccc12)c1ccccc1 | – | > 100
5 | Cc1nc2ccccc2c(=O)n1-c1ccccc1F | – | > 100
6 | Clc1ccc(-c2c(C3=NCCCN3)nnn2-c2ccc(Cl)cc2)cc1 | – | > 77.2
7 | Cc1ccc(C(=O)Nc2ccc(CN3CCN(C)CC3)c(C(F)(F)F)c2)cc1C#Cc1cnc(N)c2ccccc12 | 0.785 µM | 1.69
8 | C=C1CC[C@@H]2[C@](C)(COC(C)=O)[C@H](OC(C)=O)CC[C@@]2(C)[C@@H]1CC(Nc1ccc(S(=O)(=O)Nc2ncccn2)cc1)C1=CCOC1=O (stereo partly drawn) | 6.07 µM | 18.7
9 | COc1cc2c(c(OC)c1OC)-c1c(cc3c(c1OC)OCO3)C1OC2C(C)C1C (stereo not drawn) (tested in a mixture with another compound) | – | > 100
10 | CCc1oc2ccccc2c1C(=O)c1cc(I)c(O)c(I)c1 | 2.05 µM | 7.65
11 | CON(C)C(=O)N1N=C(c2cc(F)ccc2F)SC1(CCCN)c1ccccc1 (stereo not drawn) | 0.0191 µM and < 0.01 µM | 1.1
12 | O=C1/C(=C/c2ccc(O)cc2)CSc2ccc(Cl)cc21 | 18.2 µM | 40.1

System: K-562 leukemia
Experiment: inhibition of tumour cell growth, NCI panel, 48 h

Row | Compound | GI50 [µM] | TGI
13 | COc1ccc(-n2cc(-c3cc(OC)c(OC)c(OC)c3)[nH]c2=O)cc1Cl | > 100 | > 100 µM
14 | C=C(C)C1CCC2(C(=O)O)CCC3(C)C(CCC4C5(C)CCC(OC(=O)NCc6ccccc6)C(C)(C)C5CCC43C)C12 (stereo not drawn) | 1.67 | > 100 µM
15 | Cc1ccc(-c2cc(=O)c3cc(C)c(C)c(C(=O)O)c3o2)cc1C | – | > 100 µM
16 | O=C(/C=C/c1c(O)ccc2ccccc12)c1ccccc1 | – | > 100 µM
17 | Cc1nc2ccccc2c(=O)n1-c1ccccc1F | – | > 100 µM
18 | Clc1ccc(-c2c(C3=NCCCN3)nnn2-c2ccc(Cl)cc2)cc1 | – | 48.5 µM
19 | Cc1ccc(C(=O)Nc2ccc(CN3CCN(C)CC3)c(C(F)(F)F)c2)cc1C#Cc1cnc(N)c2ccccc12 | 0.005 | 0.61 µM
20 | C=C1CC[C@@H]2[C@](C)(COC(C)=O)[C@H](OC(C)=O)CC[C@@]2(C)[C@@H]1CC(Nc1ccc(S(=O)(=O)Nc2ncccn2)cc1)C1=CCOC1=O (stereo partly drawn) | 1.73 | 11.7 µM
21 | COc1cc2c(c(OC)c1OC)-c1c(cc3c(c1OC)OCO3)C1OC2C(C)C1C (stereo not drawn) (tested in a mixture with another compound) | – | > 100 µM
22 | CCc1oc2ccccc2c1C(=O)c1cc(I)c(O)c(I)c1 | 0.726 | 18.8 µM
23 | CON(C)C(=O)N1N=C(c2cc(F)ccc2F)SC1(CCCN)c1ccccc1 (stereo not drawn) | < 0.01 | 15.1 µM and 14.3 µM
24 | O=C1/C(=C/c2ccc(O)cc2)CSc2ccc(Cl)cc21 | 2.36 | > 100 µM

System: HCT-116 colon
Experiment: inhibition of tumour cell growth, NCI panel, 48 h

Row | Compound | GI50 [µM] | TGI [µM]
25 | COc1ccc(-n2cc(-c3cc(OC)c(OC)c(OC)c3)[nH]c2=O)cc1Cl | > 100 | > 100
26 | C=C(C)C1CCC2(C(=O)O)CCC3(C)C(CCC4C5(C)CCC(OC(=O)NCc6ccccc6)C(C)(C)C5CCC43C)C12 (stereo not drawn) | 2.24 | 19.3
27 | Cc1ccc(-c2cc(=O)c3cc(C)c(C)c(C(=O)O)c3o2)cc1C | – | > 100
28 | O=C(/C=C/c1c(O)ccc2ccccc12)c1ccccc1 | – | > 100
29 | Cc1nc2ccccc2c(=O)n1-c1ccccc1F | – | > 100
30 | Clc1ccc(-c2c(C3=NCCCN3)nnn2-c2ccc(Cl)cc2)cc1 | – | > 75.6
31 | Cc1ccc(C(=O)Nc2ccc(CN3CCN(C)CC3)c(C(F)(F)F)c2)cc1C#Cc1cnc(N)c2ccccc12 | 0.336 | 1.01
